Data on 2 molecules can be found in patent US20180344680A1, “COMPOSITIONS AND METHODS FOR TREATMENT, AMELIORATION, AND PREVENTION OF DIABETES-RELATED SKIN ULCERS” (THE ARIZONA BOARD OF REGENTS ON BEHALF OF THE UNIVERSITY OF …, priority 2015, published 2018).

“Also recorded” adds a separate entry of the source.

Holding throughout (format): in vivo, mouse
In one assay the test system is NRF2 pathway. Description: Immunoblot and IHC of NRF2 and its target genes in wound skin tissues of STZ mice. Conditions: 12.5 mg/kg SF or 50 mg/kg CA i.p. every other day; for protein expression of NRF2 and its target genes HO-1, AKR1C1, and NQO1 (immunoblot): diabetic mouse skin tissue lysates; for NRF2 and HO-1 level by IHC: wound skin tissues of diabetic mice.
The next assay relates to MMP9. Description: MMP9 expression in wound skin tissues of STZ mice (immunoblot, IHC). Conditions: immunoblot and IHC, day 14. The source says: Diabetes mouse model and treatments. Nrf2^+/+ and Nrf2^-/- C57BL/6 mice were described previously (see, e.g., Jiang T, et al., Diabetes 59:850-860, 2010) and were housed and handled in accordance with the University of Arizona Institutional Animal Care policies. The STZ-induced diabetic model was previously described (see, e.g., Zheng H, et al., Diabetes 60:3055-3066, 2011) and only 8 week old male mice were included in this study. Briefly, three weeks after STZ injections, fasting glucose levels (FGL, 4 h fast) were measured using the AlphaTRAK system (Abbott Laboratory, North Chicago, Ill.) and mice with a FGL higher than or equal to 250 mg/dL were considered diabetic and included in the study (see, e.g., FIG. 2A and FIG. 3A for a detailed timeline). […] Gross wound closure was quantified by ImageJ software, and wound healing was expressed as the percentage of the original wound area that had healed. […] Morphology was assessed by hematoxylin and eosin (H&E) staining (Vector laboratory, Burlingame, Calif.). […] Protein concentration was measured using Quant-iT Protein Assay (Invitrogen) and 150 μg of protein were resolved by SDS-PAGE and immunoblotting analyses with the indicated antibodies.
(In general: A western blot detects proteins with antibodies after separation by electrophoresis.)

For assay [1], the system named is wounds of non-diabetic Nrf2+/+ mice. In words: Wound closure in non-diabetic mice. Conditions: non-diabetic Nrf2+/+ mice treated with SF or CA vs corn oil; up to 14 days. The text has this:
Diabetes mouse model and treatments. Nrf2^+/+ and Nrf2^-/- C57BL/6 mice were described previously (see, e.g., Jiang T, et al., Diabetes 59:850-860, 2010) and were housed and handled in accordance with the University of Arizona Institutional Animal Care policies. The STZ-induced diabetic model was previously described (see, e.g., Zheng H, et al., Diabetes 60:3055-3066, 2011) and only 8 week old male mice were included in this study. Briefly, three weeks after STZ injections, fasting glucose levels (FGL, 4 h fast) were measured using the AlphaTRAK system (Abbott Laboratory, North Chicago, Ill.) and mice with a FGL higher than or equal to 250 mg/dL were considered diabetic and included in the study (see, e.g., FIG. 2A and FIG. 3A for a detailed timeline). The mice (n=5-8) were then allocated randomly to each of the indicated treatment groups and received corn oil (control), 12.5 mg/kg SF or 50 mg/kg CA intraperitoneally every two days until skin tissues were harvested. One week after the treatments, the mice were anesthetized, their backs were shaved and cleaned. Two wounds were made with a sterile 6 mm skin biopsy punch (Health link, Jacksonville, Fla.) and covered with 3M Tegaderm pads. […] Gross wound closure was quantified by ImageJ software, and wound healing was expressed as the percentage of the original wound area that had healed. […]

Procedure for NRF2 pathway: Diabetes mouse model and treatments. […] The STZ-induced diabetic model was previously described (see, e.g., Zheng H, et al., Diabetes 60:3055-3066, 2011) and only 8 week old male mice were included in this study. Briefly, three weeks after STZ injections, fasting glucose levels (FGL, 4 h fast) were measured using the AlphaTRAK system (Abbott Laboratory, North Chicago, Ill.) and mice with a FGL higher than or equal to 250 mg/dL were considered diabetic and included in the study (see, e.g., FIG. 2A and FIG. 3A for a detailed timeline). The mice (n=5-8) were then allocated randomly to each of the indicated treatment groups and received corn oil (control), 12.5 mg/kg SF or 50 mg/kg CA intraperitoneally every two days until skin tissues were harvested. One week after the treatments, the mice were anesthetized, their backs were shaved and cleaned. Two wounds were made with a sterile 6 mm skin biopsy punch (Health link, Jacksonville, Fla.) and covered with 3M Tegaderm pads. […] The tissues were collected using an 8 mm skin biopsy punch; one half was fixed in 10% buffered formalin and embedded in paraffin while the other half was used for protein extraction. […] Wounds and tissue collection were performed as described above.
Immunohistochemistry (IHC), immunoblot analyses, TGF-β1 immunoassay, and gelatin zymography. […] For IHC, antigen retrieval was performed by boiling in sodium citrate buffer (10 mM, pH 6.0) or EDTA buffer (1 mM, pH 8.0). After blocking endogenous peroxidase and non-specific binding, tissue sections were incubated with the indicated primary antibodies. Staining was performed using the Envision system HRP-DAB kit (DAKO North America, CA) according to the manufacturer's instructions.
For protein detection of mouse skin tissues were homogenized in lysis buffer (50 mM Tris-HCl buffer pH 7.4, 100 mM DTT, 2% SDS, 10% glycerol). Protein concentration was measured using Quant-iT Protein Assay (Invitrogen) and 150 μg of protein were resolved by SDS-PAGE and immunoblotting analyses with the indicated antibodies.
To explore the feasibility of pharmacologic activation of NRF2 in facilitating diabetic wound healing, sulforaphane (SF) and cinnamaldehyde (CA), two well-studied NRF2 activators, were tested for their ability to activate the NRF2-mediated antioxidant response in mouse skin tissues. After induction of diabetes using STZ, diabetic Nrf2^+/+ mice were intraperitoneally injected with corn oil (vehicle control), 12.5 mg/kg SF, or 50 mg/kg CA every other day for 1 week, then the wound surgery was performed and the treatment continued for 2 more weeks (FIG. 3A).

As to `C[S@@+]([O-])CCCCN=C=S` [SF, L-sulforaphane], in the assay on NRF2 pathway, the “protein expression of NRF2 and its target genes HO-1, AKR1C1, and NQO1 (immunoblot)” value is “upregulated”; the “NRF2 and HO-1 level by IHC” value is reported as “high level”. Moreover, the MMP9 protein expression entry in the assay on MMP9 was “restored the protein expression of MMP9 to levels comparable to the Con mice”. The wound closure entry in assay [1] is “No statistically significant differences; also recorded: do not show accelerated wound closure”.

Regarding `O=CC=Cc1ccccc1` [CA, Cinnamaldehyde], in the assay on NRF2 pathway, the “protein expression of NRF2 and its target genes HO-1, AKR1C1, and NQO1 (immunoblot)” value is listed as “upregulated”; the “NRF2 and HO-1 level by IHC” value was “high level”. For the same molecule, in the assay with MMP9, the MMP9 protein expression result is on record as “restored the protein expression of MMP9 to levels comparable to the Con mice”. Further, the wound closure result in assay [1] is reported as “No statistically significant differences; also recorded: do not show accelerated wound closure”.
